The structures appear in SMILES notation. Where only a bound is given, the exact number is not on record here.

For the assay, the target named is rat mGluR5 (Rattus norvegicus (Rat), UniProt P31424). Put plainly: cell-based.
Chain of rat mGluR5 (P31424 21-1203): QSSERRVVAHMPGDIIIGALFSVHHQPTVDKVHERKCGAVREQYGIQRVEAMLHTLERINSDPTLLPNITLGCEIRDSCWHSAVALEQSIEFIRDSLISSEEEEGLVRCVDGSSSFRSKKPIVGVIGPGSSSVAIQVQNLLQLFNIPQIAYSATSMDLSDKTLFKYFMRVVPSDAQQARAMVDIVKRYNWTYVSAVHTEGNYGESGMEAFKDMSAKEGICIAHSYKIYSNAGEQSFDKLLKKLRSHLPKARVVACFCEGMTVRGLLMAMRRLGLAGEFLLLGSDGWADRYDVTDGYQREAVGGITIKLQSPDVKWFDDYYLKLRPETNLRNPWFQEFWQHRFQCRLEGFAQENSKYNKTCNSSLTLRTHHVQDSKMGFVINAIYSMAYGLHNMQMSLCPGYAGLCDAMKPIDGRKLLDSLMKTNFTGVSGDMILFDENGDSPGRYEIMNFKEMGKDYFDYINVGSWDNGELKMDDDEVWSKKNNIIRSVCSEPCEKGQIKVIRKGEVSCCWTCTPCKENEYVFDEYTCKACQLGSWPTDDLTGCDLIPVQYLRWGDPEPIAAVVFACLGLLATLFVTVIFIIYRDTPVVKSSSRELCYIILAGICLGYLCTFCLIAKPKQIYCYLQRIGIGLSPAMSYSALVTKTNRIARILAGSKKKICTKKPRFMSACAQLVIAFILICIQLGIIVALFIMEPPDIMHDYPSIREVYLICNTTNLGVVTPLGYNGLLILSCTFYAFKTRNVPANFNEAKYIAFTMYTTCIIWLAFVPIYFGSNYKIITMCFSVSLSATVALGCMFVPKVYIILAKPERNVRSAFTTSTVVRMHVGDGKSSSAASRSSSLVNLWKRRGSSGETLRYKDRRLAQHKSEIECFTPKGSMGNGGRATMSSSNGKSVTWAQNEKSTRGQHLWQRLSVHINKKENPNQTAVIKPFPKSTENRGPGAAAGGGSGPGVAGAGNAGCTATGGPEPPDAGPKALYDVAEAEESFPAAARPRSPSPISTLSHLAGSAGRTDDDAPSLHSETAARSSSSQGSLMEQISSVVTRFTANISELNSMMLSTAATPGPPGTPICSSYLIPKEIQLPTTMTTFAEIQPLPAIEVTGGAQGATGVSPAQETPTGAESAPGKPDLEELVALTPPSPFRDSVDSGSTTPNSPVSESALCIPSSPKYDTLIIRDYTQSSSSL
Description: The cells were loaded with a Ca2+-sensitive fluorescent dye (e.g., Fluo-4), and the plates were washed and placed in the FDSS instrument. Test compound was applied to cells 3 seconds after baseline readings were taken. Cells were incubated with the test compounds for 140 seconds and then stimulated with an EC20 concentration of an mGluR5 agonist (e.g., glutamate, 3,5-dihydroxyphenylglycine, or quisqualate); 60-80 seconds later an EC80 concentration of agonist was added and readings taken for an additional 40 seconds. Data were collected at 1 Hz. […] Concentration response curves were generated using a four parameter logistical equation.
The above described assay was operated in two modes. In the first mode (utilizing a triple add protocol), a range of concentrations of the present compounds were added to cells, followed by two single fixed concentrations of agonist (EC20 followed by EC80). If a compound acted as a potentiator, an EC50 value for potentiation of the EC20 response and a maximum extent of potentiation by the compound at this concentration of agonist was determined by non-linear curve fitting. If a compound acted as an antagonist, an IC50 value for antagonism of the EC80 response and a maximum extent of antagonism by the compound at this concentration of agonist was determined by non-linear curve fitting. In the second mode (utilizing a double add protocol), several fixed concentrations of the present compounds were added to various wells on a plate, followed by a range of concentrations of agonist for each concentration of present compound; the EC50 values for the agonist at each concentration of compound were determined by nonlinear curve fitting. A decrease in the EC50 value of the agonist with increasing concentrations of the present compounds (a leftward shift of the agonist concentration-response curve) is an indication of the degree of mGluR5 positive allosteric modulation at a given concentration of the present compound. An increase in the EC50 value of the agonist with increasing concentrations of the present compounds (a rightward shift of the agonist concentration response curve) is an indication of the degree of mGluR5 antagonism at a given concentration of the present compound. The second mode also indicates whether the present compounds also affect the maximum response to mGluR5 to agonists.
The mGluR5 activity was determined using the metabotropic glutamate receptor activity assays in human embryonic kidney cells as described herein, wherein the human embryonic kidney cells were transfected with rat mGluR5. The mGluR5 activity data for some compounds are shown as the average of at least three experiments with the standard error in these cases. If no error is indicated for the mGluR5 activity, the values given represent the results from a single experiment or the average of two experiments.
Regarding `O=C(Nc1ncccc1F)c1cc(Cl)cc(Oc2cncnc2)c1`, the IC50 is more than 10000 nM.

In turn, `Cc1nc(NC(=O)c2cc(F)cc(Oc3cncnc3)c2)sc1F` had an IC50 of 52 nM.

With `CN(c1cncnc1)c1cc(Cl)cc(C(=O)Nc2cc(Cl)ccn2)c1`, the IC50 turned out to be 262 nM.

For `Cc1nc(NC(=O)c2cc(F)cc(Oc3cncnc3)c2)sc1C(C)(C)C`, the IC50 is more than 10000 nM.

The compound `O=C(Nc1nc(C2CC2)cs1)c1cc(F)cc(Oc2cncnc2)c1` returned an IC50 of 345 nM. That is a sub-micromolar value.

`O=C(Nc1nc(C2CC2)cs1)c1cc(Cl)cc(Oc2cncnc2)c1` showed an IC50 of 198 nM. This IC50 is about 1.7-fold lower than that of the compound before.

`CCc1ccnc(NC(=O)c2cc(Cl)cc(Oc3cncnc3)c2)c1`: the IC50 is 4160 nM.

Consider `Cc1cncc(NC(=O)c2cc(F)cc(Oc3cncnc3)c2)c1`, for which the IC50 is more than 10000 nM.

Consider `Cc1csc(NC(=O)c2cccc(Oc3cncnc3)c2)n1`, for which the midpoint of inhibition, the IC50, lay at 65 nM.

Compound `O=C(Nc1ccc(F)c(CF)n1)c1cc(F)cc(Oc2cncnc2)c1` yielded an IC50 of 4540 nM. Against the preceding compound, the IC50 is about 70-fold higher.

Take `CN(c1cccnc1)c1cc(F)cc(C(=O)Nc2nc(C#N)cs2)c1`: the IC50 stood at 2190 nM.

`Cc1csc(NC(=O)c2cc(Cl)cc(N(C)c3cccnc3)c2)n1`: half-maximal inhibition (IC50) was put at 49 nM. Compared with the last compound, the IC50 is about 45-fold lower.

`CN(c1cncnc1)c1cc(F)cc(C(=O)Nc2ccc(Cl)cn2)c1` displayed an IC50 of more than 30000 nM.

Compound `Cc1cc(Oc2cncnc2)cc(C(=O)Nc2ccc(F)cn2)c1` gave an IC50 of 22 nM.

`O=C(Nc1ncc(F)cc1F)c1cc(Cl)cc(Oc2cncnc2)c1` showed an IC50 of more than 30000 nM.

In turn, `COc1cccc(NC(=O)c2cc(F)cc(Oc3cncnc3)c2)n1` displayed an IC50 of 1060 nM.

`O=C(Nc1nccs1)c1cc(F)cc(Oc2cncnc2)c1` came in with an IC50 of 5160 nM.

As for `CN(c1cccnc1)c1cc(F)cc(C(=O)Nc2nccs2)c1`, the IC50 came to 1250 nM.

For the compound `Cc1csc(NC(=O)c2cc(F)cc(N(C)c3cccnc3)c2)n1`, inhibition was half-maximal at 176 nM (IC50).

As to `Cc1nc(NC(=O)c2cc(F)cc(Oc3cncnc3)c2)ccc1F`, half-maximal inhibition (IC50) required 360 nM.

In turn, `O=C(Nc1nccs1)c1cccc(Oc2cncnc2)c1` displayed an IC50 of 4550 nM.

Compound `O=C(Nc1ccc(F)cn1)c1cccc(Oc2cccnc2)c1` yielded an IC50 of 7450 nM.

In turn, `Cc1cncc(NC(=O)c2cc(F)cc(N(C)c3cncnc3)c2)c1` gave an IC50 of more than 10000 nM.

On to `Cc1nsc(NC(=O)c2cccc(Oc3cccnc3)c2)n1`, for which the IC50 is more than 30000 nM.

Turning to `O=C(Nc1ccncn1)c1cccc(Oc2cccnc2)c1`, the IC50 is more than 10000 nM.

Consider `CN(c1cncnc1)c1cc(F)cc(C(=O)Nc2cc(Cl)ccn2)c1`, for which half-maximal inhibition (IC50) was put at 106 nM. In other words, the sub-micromolar range.

Take `CN(c1cccnc1)c1cc(Cl)cc(C(=O)Nc2nccs2)c1`: half-maximal inhibition (IC50) required 648 nM.

Regarding `O=C(Nc1nc(C(F)(F)F)cs1)c1cccc(Oc2cccnc2)c1`, the 50% inhibitory concentration (IC50) is more than 30000 nM.

Turning to `O=C(Nc1ccc(F)c(C(F)F)n1)c1cc(Cl)cc(Oc2cncnc2)c1`, the IC50 amounted to 779 nM. This lies in the sub-micromolar range.

Compound `Cc1cncc(NC(=O)c2cc(Cl)cc(N(C)c3cncnc3)c2)c1` gave an IC50 of more than 10000 nM.

For `Cc1cncc(NC(=O)c2cc(Cl)cc(Oc3cncnc3)c2)c1`, the half-maximal inhibitory concentration (IC50) is more than 10000 nM.

In the case of `Cc1nc(NC(=O)c2cc(Cl)cc(Oc3cncnc3)c2)ccc1F`, the IC50 was 54 nM.

Compound `N#Cc1csc(NC(=O)c2cccc(Oc3cccnc3)c2)n1` showed an IC50 of 3590 nM.

Regarding `O=C(Nc1nc(C(F)F)cs1)c1cc(Cl)cc(Oc2cncnc2)c1`, the IC50 stood at 389 nM. This IC50 is about 9.2-fold lower than that of the compound before.

In the case of `Cc1csc(NC(=O)c2cc(Cl)cc(Oc3cccnc3)c2)n1`, the half-inhibitory concentration (IC50) is 6.5 nM. Against the preceding compound, the IC50 is about 60-fold lower.

Regarding `Cc1cc(NC(=O)c2cc(Cl)cc(Oc3cncnc3)c2)ncc1F`, inhibition was half-maximal at 2780 nM (IC50).

Compound `CN(c1cncnc1)c1cc(Cl)cc(C(=O)Nc2ccc(Cl)cn2)c1` returned an IC50 of 929 nM. Compared with the last compound, the IC50 is about 3-fold lower.

For the compound `CN(c1cccnc1)c1cccc(C(=O)Nc2nccs2)c1`, the IC50 came to 3560 nM.

As to `Cc1csc(NC(=O)c2cccc(Oc3cccnc3)c2)n1`, the IC50 worked out at 296 nM.

Take `O=C(Nc1ccc(Cl)cn1)c1cc(Cl)cc(Oc2cncnc2)c1`: the IC50 is 87 nM. Against the preceding compound, the IC50 is about 3.4-fold lower.

Take `Cc1nc(NC(=O)c2cc(Cl)cc(Oc3cncnc3)c2)sc1Br`: half-maximal inhibition (IC50) was put at 3700 nM. Compared with the last compound, the IC50 is about 43-fold higher.

As usually defined, the IC50 is the concentration at which inhibition is half-maximal.

These data come from patent US8796295B2, “Substituted benzamide analogs as mGluR5 negative allosteric modulators and methods of making and using the same” (priority 2009, dated 2014).
